Key:
[1] = 298.15 K; 101.3 kPa; Liquid
[2] = xn = mol fraction of the nth substance listed; conditions: 298 K, 101.3 kPa, Liquid

CC(=O)OCCC(C)C [3-methylbutyl ethanoate]
Conditions | mass density [kg/m3]
[1] | 867.356

CC(=O)OCCC(C)C [3-methylbutyl ethanoate] + C=C(C)C(=O)OC
[2]
Conditions | mass density [kg/m3]
x1 = 0.0263 | 934.984
x1 = 0.0515 | 932.526
x1 = 0.1007 | 927.871
x1 = 0.1599 | 922.52
x1 = 0.2002 | 919.025
x1 = 0.25 | 914.86
x1 = 0.3053 | 910.408
x1 = 0.3502 | 906.93
x1 = 0.4005 | 903.17
x1 = 0.4504 | 899.578
x1 = 0.5005 | 896.102
x1 = 0.5502 | 892.767
x1 = 0.6005 | 889.513
x1 = 0.6538 | 886.188
x1 = 0.7003 | 883.384
x1 = 0.7508 | 880.451
x1 = 0.8003 | 877.66
x1 = 0.85 | 874.956
x1 = 0.9002 | 872.311
x1 = 0.9499 | 869.798
x1 = 0.9751 | 868.558
x1 = 1 | 867.356

CC(=O)OCCC(C)C [3-methylbutyl ethanoate] + C=CC(=O)OCC
Conditions | mass density [kg/m3]
[2], x1 = 1 | 867.356

CC(=O)OCCC(C)C [3-methylbutyl ethanoate] + C=CC(=O)OCCCC
Conditions | mass density [kg/m3]
[2], x1 = 1 | 867.356

CC(=O)OCCC(C)C [3-methylbutyl ethanoate] + C=Cc1ccccc1
[2]
Conditions | mass density [kg/m3]
x1 = 0.0293 | 900.833
x1 = 0.0529 | 899.946
x1 = 0.0997 | 898.18
x1 = 0.1502 | 896.274
x1 = 0.2 | 894.422
x1 = 0.2502 | 892.59
x1 = 0.3064 | 890.541
x1 = 0.3509 | 888.929
x1 = 0.4042 | 887.046
x1 = 0.4508 | 885.398
x1 = 0.5011 | 883.646
x1 = 0.5571 | 881.719
x1 = 0.6002 | 880.257
x1 = 0.6507 | 878.546
x1 = 0.7003 | 876.895
x1 = 0.7514 | 875.198
x1 = 0.7999 | 873.614
x1 = 0.8507 | 871.983
x1 = 0.9005 | 870.41
x1 = 0.9499 | 868.881
x1 = 0.9747 | 868.119
x1 = 1 | 867.356

C=CC(=O)OCCCC [butyl 2-propenoate]
Conditions | mass density [kg/m3]
[1] | 893.947

C=CC(=O)OCCCC [butyl 2-propenoate] + CC(=O)OCCC(C)C
[2]
Conditions | mass density [kg/m3]
x2 = 0 | 893.947
x2 = 0.0257 | 893.222
x2 = 0.0496 | 892.552
x2 = 0.1035 | 891.059
x2 = 0.1504 | 889.769
x2 = 0.2 | 888.407
x2 = 0.2504 | 887.04
x2 = 0.2999 | 885.689
x2 = 0.3512 | 884.304
x2 = 0.4001 | 882.985
x2 = 0.4521 | 881.596
x2 = 0.5 | 880.304
x2 = 0.55 | 878.984
x2 = 0.6 | 877.664
x2 = 0.65 | 876.356
x2 = 0.7003 | 875.048
x2 = 0.7502 | 873.751
x2 = 0.7998 | 872.467
x2 = 0.85 | 871.176
x2 = 0.9 | 869.889
x2 = 0.95 | 868.618
x2 = 0.9752 | 867.98

C=CC(=O)OCC [ethyl propenoate]
Conditions | mass density [kg/m3]
[1] | 916.124

C=CC(=O)OCC [ethyl propenoate] + CC(=O)OCCC(C)C
[2]
Conditions | mass density [kg/m3]
x2 = 0 | 916.124
x2 = 0.031 | 913.999
x2 = 0.0501 | 912.721
x2 = 0.0999 | 909.503
x2 = 0.1505 | 906.326
x2 = 0.2012 | 903.286
x2 = 0.2501 | 900.442
x2 = 0.301 | 897.604
x2 = 0.3512 | 894.897
x2 = 0.402 | 892.257
x2 = 0.4505 | 889.84
x2 = 0.501 | 887.406
x2 = 0.5502 | 885.117
x2 = 0.6002 | 882.87
x2 = 0.6518 | 880.634
x2 = 0.7001 | 878.602
x2 = 0.7499 | 876.582
x2 = 0.8008 | 874.573
x2 = 0.8514 | 872.644
x2 = 0.9001 | 870.846
x2 = 0.9503 | 869.055
x2 = 0.9752 | 868.197

C=C(C)C(=O)OC [methyl methacrylate]
Conditions | mass density [kg/m3]
[1] | 937.628

C=C(C)C(=O)OC [methyl methacrylate] + CC(=O)OCCC(C)C
Conditions | mass density [kg/m3]
[2], x2 = 0 | 937.628

C=Cc1ccccc1 [styrene]
Conditions | mass density [kg/m3]
[1] | 901.941

C=Cc1ccccc1 [styrene] + CC(=O)OCCC(C)C
Conditions | mass density [kg/m3]
[2], x2 = 0 | 901.941
